Assay [1] concerns Human immunodeficiency virus 1. The assay is described as follows: Affinity for HIV-1 Nucleocapsid Protein (12-53)NCp7 was determined. The class given is functional.
Assay [2] concerns the target Human immunodeficiency virus type 1 reverse transcriptase (Human immunodeficiency virus 1) (UniProt Q72547). As to the kind of experiment: Reverse transcriptase activity using an HIV-1 infected cell line at 10 micro M concentration.

The compound `Cc1cn(C2CC(O)C(NC(=O)CC3CC(n4cnc5c(O)nc(N)nc54)OC3CO)O2)c(=O)[nH]c1=O` (configuration not stated) displayed an Affinity in assay [1] of 9 M⁻¹. In the case of `Cc1cn(C2CC(CC(=O)NC3OC(n4cnc5c(O)nc(N)nc54)CC3O)C(CO)O2)c(=O)[nH]c1=O` (configuration not stated), the inhibition in assay [2] came out at 20%.

The values above are taken from ChEMBL document CHEMBL1131956, “Nucleomimetic strategy for the inhibition of HIV-1 nucleocapsid protein NCp7 activities” (1999).
